# Source: US20090163551A1, “Compositions and Methods for Treating Diseases” (Novartis AG, priority 2006, published 2009)
# Entries after “also recorded” stand apart in the source; their conditions may differ. Where a name gives a salt, the structure may show the parent alone.
# What was measured:
# [1] = test system: smooth muscle muscarinic receptors; assay: Carbachol concentration-response curve in antral circular muscle strips; assay type: cell-based, rat; conditions: carbachol contraction
# 5-HT receptors = assay: 5-HT concentration-response curve in antral circular muscle strips; assay type: cell-based, rat; conditions: 5-HT contraction
# enteric nerves = assay type: cell-based, rat
# [2] = test system: circular muscle strips from the gastric antrum; assay: Contractile responses to EFS of enteric nerves in antral muscle strips of pretreated indomethacin rats; assay type: in vivo, rat; conditions: for Regression Analysis Slope: linear regression of EFS (0.5 ms, 1-15 Hz) frequency-response, indomethacin-treated rats, mean ± SEM, 5-6 rats per group
# [3] = test system: rat model of indomethacin-induced gastric mucosal ulceration; assay: Indomethacin-induced gastric mucosal ulceration (ulceration index); assay type: in vivo; conditions: rats; tegaserod 1 mg/kg, omeprazole 20 mg/kg i.p. b.i.d. one day before and 30 min prior to indomethacin 50 mg/kg intragastric; 6 h post-indomethacin; vs vehicle
# Protocol: Male Sprague-Dawley rats (Charles River, Laboratories, Wilmington, Mass.) weighing 250-300 g were housed two in a cage at standard conditions (21-23° C., controlled humidity, 12 hour light/dark cycle). The animals were allowed to acclimate for one week prior to initiation of drug treatment. The experimental procedures were approved by the Animal Care and Use Committees at the V.A. Medical Center and the University of Oklahoma Health Science Center, Oklahoma City, Okla.
# (§1) Prior to the experiment the rats were fasted overnight with free access to water. On the day of experiment the rats received intragastric gavage of 50 mg/kg indomethacin dissolved in 2% NaCO3 and brought to a volume of 1.5 mL in saline (pH 6.8). Indomethacin was given at 7:30 A.M. and the animals were then placed in their home cage with free access to food and water. The rats were euthanized 6 h post-indomethacin infusion, the stomach was isolated and placed in Ca^2+-free Krebs buffer aerated with 95% O2 and 5% CO2.
# Drugs were prepared fresh for each experiment and stored at 4° C. between treatments. […]
# (§2) The stomach was cut along the small curvature, cleansed of ingested food and the fundus was separated from the glandular portion of the stomach. […] The total length of hemorrhagic lesions, which were approximately 1 mm wide, was measured and served as an index of ulceration. […]
# [4] = test system: myeloperoxidase (MPO) activity; assay: Mucosal myeloperoxidase activity after indomethacin; assay type: in vivo, rat; conditions: rats; tegaserod 1 mg/kg, omeprazole 20 mg/kg i.p. pretreatment; glandular stomach 6 h after indomethacin 50 mg/kg
# Protocol: as §1
# Drugs were prepared fresh for each experiment and stored at 4° C. between treatments. […] A separate control group received treatment with propylene glycol only. […]
# as §2
# Following dissection, the mucosal tissue was snap-frozen in liquid nitrogen and stored at −80° C. and MPO activity was assayed simultaneously. […] MPO activity was expressed as equivalent to the activity of the relative standard (ng of HRP) converting the same amount of TMB substrate for 10 min at room temperature. […]
# [5] = test system: circular muscle strips from the gastric antrum; assay: Contractile response to KCl (80 mM) in antral circular muscle strips of pretreated indomethacin rats; assay type: in vivo, rat; conditions: strips from indomethacin-treated rats pretreated with tegaserod 1 mg/kg, omeprazole 20 mg/kg, vs vehicle
# [6] = test system: circular muscle strips from the gastric antrum; assay: Contractile responses to carbachol in antral circular muscle strips of pretreated indomethacin rats; assay type: in vivo, rat; conditions: strips from indomethacin-treated rats pretreated with tegaserod 1 mg/kg, omeprazole 20 mg/kg; vs vehicle
# [7] = test system: circular muscle strips from the gastric antrum; assay: Contractile responses to 5-HT in antral circular muscle strips of pretreated indomethacin rats; assay type: in vivo, rat; conditions: strips from indomethacin-treated rats pretreated with tegaserod 1 mg/kg, omeprazole 20 mg/kg; vs vehicle
# [8] = strips from vehicle pretreated rats receiving indomethacin
# [9] = second group not named in the sentence (indomethacin-treated rats receiving vehicle)
# [10] = EFS 0.5 ms, 1-15 Hz, strips from indomethacin-treated rats pretreated with tegaserod 1 mg/kg, omeprazole 20 mg/kg
smiles,measurement,setting,value
"C[N+](C)(C)CCOC(N)=O.[Cl-] [carbachol, carbamylcholine chloride]",Hill slope,[1]; strips from naïve rats,1.07
same,Hill slope,[1]; [8],1.11
same,log EC50,[1]; [8],−7.32
"NCCc1c[nH]c2ccc(O)cc12 [5-HT, 5-hydroxytryptamine creatinine sulfate]",Hill slope,5-HT receptors; [9],0.65
same,log EC50,5-HT receptors; [9],6.839
same,Hill slope,5-HT receptors; strips from naïve rats,0.48
same,log EC50,5-HT receptors; strips from naïve rats,6.299
NC1=N[C@H](O)[C@H]2[C@H]3O[C@]4(O)O[C@@H]([C@@H](O)[C@@]2(N1)[C@@H]4O)[C@]3(O)CO [tetrodotoxin],inhibitory and excitatory responses to EFS,enteric nerves,abolished
"COc1ccc2[nH]c([S+]([O-])Cc3ncc(C)c(OC)c3C)nc2c1 (stereo not drawn) [Omeprazole, omeprazole]",Regression Analysis Slope,[2],78.8 ± 9.5
"CCCCCNC(=N)NN=Cc1c[nH]c2ccc(OC)cc12 [Tegaserod, 3-(5-methoxy-1H-indol-3-ylmethylene)-N-pentylcarbazimidamide]",formation of gastric lesions (ulceration index),[3],reduced gastric ulceration; also recorded: significantly reduced the formation of gastric lesions
same,mucosal MPO activity,[4],reduced gastric ulceration and mucosal inflammation; also recorded: inhibited MPO activity to levels that were not significantly different from those in naïve animals
same,amplitude of KCl-induced contractions,[5],"showed a tendency to prevent the development of hypercontractile responses to KCl, however in the effect of neither of the drugs reached statistical significance"
same,maximal carbachol-induced contraction,[6],not significantly different
same,amplitude of the maximal response to 5-HT,[7],significant reduction
same,increase of contractile responses to EFS,[2]; [10],prevented the increase of contractile responses to EFS
same,linear frequency-response relationship of EFS contractile responses,[2]; [10],preserved the linear frequency-response relationship; also recorded: protected the linear increase in the amplitude of contractile responses
same,"Indomethacin-induced hypercontractility (KCl, carbachol, 5-HT, EFS; overall statement)","[2]; antral circular muscle strips, tegaserod 1 mg/kg, omeprazole 20 mg/kg pretreatment",significantly attenuated
same,Regression Analysis Slope,[2],51.9 ± 5.1
